Test results from patent publication US20080227638A1, “Use of abscisic acid to enhance growth control” (priority 2007, published 2008).

Legend:
Format in all cases: in vivo
Kentucky bluegrass = experiment: Greenhouse Kentucky bluegrass height and quality, ABA and trinexapac-ethyl (Example 1); conditions: 200 ppm ABA
Method: Greenhouse studies were conducted at the Research Farm of Valent BioSciences Corporation (Long Grove, Ill.). Grasses were grown in pots (18 cm in diameter and 18 cm in height) filled with Promix BX (available from Premier Horticulture Inc. Quakertown, Pa.). Grass was irrigated daily by an overhead irrigation system. The irrigation system was set up with multiple Tornado Mist Spray Heads (10 GPH at 40 PSI-Wetted diameter, NDS/Raindrip, Woodland Hills, Calif.). Spray heads were 1-meter apart from each other and 75 cm above grass canopy. Grass was cut with a scissor at 2.5 cm height and fertilizer (1 g/L all purpose fertilizer 20-20-20, available from The Scotts Company, Marysville, Ohio) was applied once per week.
(§1) Chemical solutions were prepared with distilled water. Tween 20 (0.05% v/v) was used as an, adjuvant. Both trinexapac-ethyl (commercial product Primo Maxx, 11.3% active ingredient) and paclobutrazol (commercial product Trimmit 2SC, 22.3% active ingredient) were purchased from Syngenta Crop Protection Inc. (Greensboro, N.C.). Uniconazole-P (commercial product Sumagic, 0.55% active ingredient) was obtained from Valent U.S.A. Corporation (Walnut Creek, Calif.).
(§2) When treated with paclobutrazol or uniconazole-P, turfgrass received irrigation within 24 hours after application to flush chemicals to the root zone. After treatment, turfgrasses were arranged in a randomized complete block experimental design. Turfgrass quality, turfgrass height or clip fresh weight was measured on assigned dates. Turfgrass quality was visually rated on a 0-9 scale based on the color, uniformity and density of the grass with 0 as the worst and 9 as the best. Turfgrass height was measured as the distance between canopy surface and soil. Clips were collected from each plot; all plots were cut to a uniform height.
(§3) All experiments were randomized complete block experimental design. Data were analyzed by analysis of variance. Duncan's new multiple range tests at α=0.05 were used for mean separations.
Kentucky bluegrass sod (unknown variety) was purchased from Deak sod farms, Inc. (Union Grove, Wis.). Grass was grown in the greenhouse in pots (n=6 pots per treatment) for establishment before treatment. […] Tween 20 (0.05% w/v) was included as an adjuvant. Turfgrass canopy was not cut during the experimental period.

creeping bentgrass green = experiment: Soil moisture of creeping bentgrass green, ABA and trinexapac-ethyl (Example 8); conditions: 500 ppm ABA
Method: (§4) Field studies were conducted at the nursery green or the practice green at Countryside golf course (Mundelein, Ill.). Both greens were sand based and growing Penncross creeping bentgrass. Grass was managed with typical Illinois golf course management practices.
as §1, §2, §3
(§5) Tween 20 (0.05% w/v) was included as an adjuvant.

creeping bentgrass = experiment: Golf course green creeping bentgrass height, ABA and trinexapac-ethyl (Example 4); conditions: 200 ppm ABA
Method: as §4, §1, §2, §3, §5

[1] = system: tomato (variety: Rutgers); experiment: Tomato plant height, growth rate and leaf number (Example 9); conditions: for Leaf number: 15 days after treatment
Excerpt: (§6) Tomato (variety: Rutgers) seeds were sown in 18-cell flat filled with Promix PGX (available from Premier Horticulture Inc. Quakertown, Pa.) and grown for 3 weeks to allow for germination and initial growth. Plants were then transplanted into pots (18 cm in diameter and 18 cm in height), filled with Promix BX (available from Premier Horticulture Inc. Quakertown, Pa.), and grown for one week before the chemical treatment. Plants received daily irrigation and weekly fertilizer (1 g/L all purpose fertilizer 20-20-20, available from The Scotts Company, Marysville, Ohio).
(§7) During the chemical treatment, a 15 mL (2.5 mL/plant) solution was foliar sprayed on the tomato canopy. Leaf transpiration rates were measured using a LI-1600 Steady State Porometer (LI-Cor, Lincoln, Nebr.) at 1, 2, 3, 4, 7, 10 and 15 days after treatment. Leaf transpiration rate was normalized to the percentage of control plant to minimize the experimental errors caused by environmental factors. Plant height was measured at 0, 2, 4, 7, 10 and 15 days after treatment. Growth rate was calculated based on the changes of plant height in certain intervals. The plants were harvested and the leaf number was counted at 15 days after treatment.

[2] = system: tomato (variety: Rutgers); experiment: Tomato leaf transpiration, porometer (Example 9)
Excerpt: as §6, §7

[3] = 250 ppm ABA, day 2 after treatment
[4] = 250 ppm ABA, day 4 after treatment
[5] = 250 ppm ABA, day 7 after treatment
[6] = 250 ppm ABA, day 10 after treatment
[7] = 250 ppm ABA, day 15 after treatment
[8] = 500 ppm ABA, day 2 after treatment
[9] = 500 ppm ABA, day 4 after treatment
[10] = 500 ppm ABA, day 7 after treatment
[11] = 500 ppm ABA, day 10 after treatment
[12] = 500 ppm ABA, day 15 after treatment
[13] = 1000 ppm ABA, day 2 after treatment
[14] = 1000 ppm ABA, day 4 after treatment
[15] = 1000 ppm ABA, day 7 after treatment
[16] = 1000 ppm ABA, day 10 after treatment
[17] = 1000 ppm ABA, day 15 after treatment
[18] = 2000 ppm ABA, day 2 after treatment
[19] = 2000 ppm ABA, day 4 after treatment
[20] = 2000 ppm ABA, day 7 after treatment
[21] = 2000 ppm ABA, day 10 after treatment
[22] = 2000 ppm ABA, day 15 after treatment

S-abscisic acid [ABA] showed a Turfgrass height (Kentucky bluegrass; 7 days after treatment) of 9.4 cm, a Turfgrass height (Kentucky bluegrass; 23 days after treatment) of 19.0 cm and a Soil moisture (creeping bentgrass green; 2 days after treatment) of 11.4%. It also gave a Soil moisture (creeping bentgrass green; 7 days after treatment) of 10.9%, a Turfgrass height (creeping bentgrass; 7 days after treatment) of 5.3 cm and a Turfgrass height (creeping bentgrass; 14 days after treatment) of 8.2 cm. It also gave a Leaf number ([1]; 250 ppm ABA) of 12.2, a Plant height ([1]; 250 ppm ABA, day 0 after treatment) of 9.9 cm and a Growth rate [1, 3] of 1.5 cm/day. For the same substance, the Plant height [1, 3] was 12.8 cm, the Growth rate [1, 4] was 1.6 cm/day and the Plant height [1, 4] was 16.3 cm. It also gave a Growth rate [1, 5] of 2.7 cm/day, a Plant height [1, 5] of 28.5 cm and a Growth rate [1, 6] of 2.1 cm/day. It also gave a Plant height [1, 6] of 30.4 cm, a Growth rate [1, 7] of 2.3 cm/day and a Plant height [1, 7] of 45.5 cm. It also gave a Leaf number ([1]; 500 ppm ABA) of 12.0, a Plant height ([1]; 500 ppm ABA, day 0 after treatment) of 10.1 cm and a Growth rate [1, 8] of 1.3 cm/day. It also gave a Plant height [1, 8] of 12.5 cm, a Growth rate [1, 9] of 1.6 cm/day and a Plant height [1, 9] of 16.3 cm. For the same substance, the Growth rate [1, 10] was 2.4 cm/day, the Plant height [1, 10] was 27.0 cm and the Growth rate [1, 11] was 2.0 cm/day. It also gave a Plant height [1, 11] of 29.6 cm, a Growth rate [1, 12] of 2.3 cm/day and a Plant height [1, 12] of 44.1 cm. For the same substance, the Leaf number ([1]; 1000 ppm ABA) was 12.0, the Plant height ([1]; 1000 ppm ABA, day 0 after treatment) was 9.8 cm and the Growth rate [1, 13] was 1.0 cm/day. It also gave a Plant height [1, 13] of 11.7 cm, a Growth rate [1, 14] of 1.2 cm/day and a Plant height [1, 14] of 14.5 cm. It also gave a Growth rate [1, 15] of 2.2 cm/day, a Plant height [1, 15] of 25.3 cm and a Growth rate [1, 16] of 1.8 cm/day. For the same substance, the Plant height [1, 16] was 27.4 cm, the Growth rate [1, 17] was 2.0 cm/day and the Plant height [1, 17] was 41.6 cm. The Leaf number ([1]; 2000 ppm ABA) was 12.0, the Plant height ([1]; 2000 ppm ABA, day 0 after treatment) was 9.8 cm and the Growth rate [1, 18] was 0.9 cm/day. The Plant height [1, 18] was 11.5 cm, the Growth rate [1, 19] was 1.3 cm/day and the Plant height [1, 19] was 14.9 cm. It also gave a Growth rate [1, 20] of 1.9 cm/day, a Plant height [1, 20] of 23.2 cm and a Growth rate [1, 21] of 1.6 cm/day. The Plant height [1, 21] was 25.8 cm, the Growth rate [1, 22] was 1.9 cm/day and the Plant height [1, 22] was 40.5 cm. For the same substance, the Transpiration ([2]; 250 ppm ABA, day 1 after treatment) was 87 % of control, the Transpiration [2, 3] was 86 % of control and the Transpiration ([2]; 250 ppm ABA, day 3 after treatment) was 91 % of control. For the same substance, the Transpiration [2, 4] was 95 % of control, the Transpiration [2, 5] was 99 % of control and the Transpiration [2, 6] was 98 % of control. The Transpiration [2, 7] was 99 % of control, the Transpiration ([2]; 500 ppm ABA, day 1 after treatment) was 78 % of control and the Transpiration [2, 8] was 78 % of control. For the same substance, the Transpiration ([2]; 500 ppm ABA, day 3 after treatment) was 84 % of control, the Transpiration [2, 9] was 88 % of control and the Transpiration [2, 10] was 98 % of control. For the same substance, the Transpiration [2, 11] was 99 % of control, the Transpiration [2, 12] was 99 % of control and the Transpiration ([2]; 1000 ppm ABA, day 1 after treatment) was 60 % of control. For the same substance, the Transpiration [2, 13] was 73 % of control, the Transpiration ([2]; 1000 ppm ABA, day 3 after treatment) was 76 % of control and the Transpiration [2, 14] was 84 % of control. The Transpiration [2, 15] was 93 % of control, the Transpiration [2, 16] was 99 % of control and the Transpiration [2, 17] was 97 % of control. The Transpiration ([2]; 2000 ppm ABA, day 1 after treatment) was 46 % of control, the Transpiration [2, 18] was 58 % of control and the Transpiration ([2]; 2000 ppm ABA, day 3 after treatment) was 70 % of control. The Transpiration [2, 19] was 76 % of control, the Transpiration [2, 20] was 85 % of control and the Transpiration [2, 21] was 95 % of control. For the same substance, the Transpiration [2, 22] was 100 % of control.
